Assays:
Type in all cases: cell-based
[1] = test system: ISG gene expression induced by MSA-2 in human THP1-Blue-ISG cells; assay: Inhibition of MSA-2-induced ISG gene expression in human THP1-Blue-ISG cells (Quanti-Blue, OD650); details: STING agonist MSA-2 10 µM, incubated for 24 hours
Experimental: (§1) 10 µL of compound diluted with PBS/physiological saline was added to each well of a 96 well cell culture plate. The STING agonist was MSA-2, which was added to the counted cell suspension at a final concentration of 10 µM. For the control group without compounds, 10 µL of PBS/physiological saline containing 2% DMSO was added. 3 replicate wells were set in each group. THP1-Blue-ISG cells were counted and adjusted to a cell concentration of 4× 10^5/mL, and 190 µL of cells containing STING agonist were added to each well for incubation. Therefore, the final volume of each test well was 200 µL, the content of DMSO was 0.1%, and the final concentration of the compound tested was 10/3.3/1.1/0.4/0.13/0.04/0.013/0.004 µM, incubated for 24 hours. In addition, 190 µL of cells without STING agonist and 10 µL of physiological saline containing 2% DMSO were added to the blank group. 3 replicate wells were set in each group.
After 24 hours, 20 µL of culture medium was taken from each well and transferred to a new 96 well plate. 180 µL of chromogenic solution Quanti-Blue was added. The plate was placed in a 37 °C incubator. After 2 hours, the OD650 values were measured.
Result analysis: Inhibition rate (%) = (Con(OD650)−Treated(OD650))/Con(OD650) × 100% [formula]
(§2) The IC50 calculation of inhibitors was implemented using the Graphpad Prism 8 software's calculation method log (inhibitor) vs. response - Variable slope (four parameters), with a constrain interval of 0-100.

[2] = test system: DMXAA induced ISG gene expression in mouse RAW-Lucia cells; assay: Inhibition of DMXAA-induced ISG gene expression in mouse RAW-Lucia cells (QUANTI-Luc); details: STING agonist DMXAA 50 µM, incubated for 24 hours
Experimental: 10 µL of compound diluted with PBS/physiological saline was added to each well of a 96 well cell culture plate. The STING agonist was DMXAA, which was added to the counted cell suspension at a final concentration of 50 µM. For the control group without compounds, 10 µL of PBS/physiological saline containing 2% DMSO was added. 3 replicate wells were set in each group. RAW-Lucia cells were counted and adjusted to a cell concentration of 4×10^5/mL, and […] of cells were added to each well for incubation. Therefore, the final volume of each test well was 200 µL, the content of DMSO was 0.1%, and the final concentration of the compound tested was 10/3.3/1.1/0.4/0.13/0.04/0.013/0.004 µM. The final concentration of STING agonist DMXAA was 50 µM. The mixture was incubated for 24 hours. In addition, 200 µL of culture medium was added to the blank group. 3 replicate wells were set in each group.
(§3) After 24 hours, 20 µL of culture medium was taken from each well and transferred to a new 96 well plate with photopermeable bottom. 50 µL of the luciferase detection reagent QUANTI-Luc™ was added, and the […] was immediately measured (avoid light).
Result analysis: Inhibition rate (%) = (Con(Lum)−Treated(Lum))/Con(Lum) × 100% [formula]
as §2

[3] = test system: ISG gene expression induced by MSA-2 in human THP1-Dual cells; assay: Inhibition of MSA-2-induced ISG gene expression in human THP1-Dual cells (QUANTI-Luc); details: STING agonist MSA-2 10 µM, incubated for 24 hours
Experimental: as §1, with “THP1-Dual” for “THP1-Blue-ISG”, “4×10^5/mL,” for “4× 10^5/mL,”
as §3, with “medium for THP1-Dual cells” for “medium”, “light). Result analysis:Inhibition rate (%) = (Con(Lum)−Treated(Lum))/Con(Lum) × 100% [formula]” for “light).”
as §2

SMILES	IC50 [1]	IC50 [2]	IC50 [3]
CC1(C)C(=O)N(CC2CC2)c2cc(C(=O)Nc3c[nH]c4ccccc34)ccc21 [Example I-78, 1-cyclopropylmethyl-N-(1H-indol-3-yl)-3,3-dimethyl-2-oxoindolin-6-carboxamide]	334 nM	7.4 nM	
CC1(C)C(=O)N(CCc2ccccc2)c2cc(C(=O)Nc3c[nH]c4ccccc34)ccc21 [Example I-81, N-(1H-indol-3-yl)-3,3-dimethyl-2-oxo-1-phenethylindolin-6-carboxamide]	237 nM	0.42 nM	
CC1(C)C(=O)N(CC2CN(c3ccccc3)C2)c2cc(C(=O)Nc3c[nH]c4ccccc34)ccc21 [Example I-11, N-(1H-indol-3-yl)-3,3-dimethyl-2-oxo-1-((1-phenylazetidin-3-yl)methyl)indolin-6-carboxamide]	180 nM	23 nM	
O=C(Nc1c[nH]c2ccccc12)c1ccc2c(c1)N(Cc1cccs1)C(=O)CS2 [Example I-59, N-(1H-indol-3-yl)-3-oxo-4-(thien-2-ylmethyl)-3,4-dihydro-2H-benzo[b][1,4]thiazin-6-carboxamide]	25 nM		
O=C(Nc1ccc2c(c1)N(CC1CN(c3ccc4c(c3)OCO4)C1)C(=O)CS2)Nc1c[nH]c2ccccc12 [Example I-13, 1-(4-((1-(benzo[d][1,3]dioxolan-5-yl)azetidin-3-yl)methyl)-3-oxo-3,4-dihydro-2H-benzo[b][1,4]thiazin-6-yl)-3-(1H-indol-3-yl)urea]	391 nM		
O=C(Nc1c[nH]c2ccccc12)c1ccc2c(c1)N(Cc1ccco1)C(=O)CS2 [Example I-60, 4-(furan-2-ylmethyl)-N-(1H-indol-3-yl)-3-oxo-3,4-dihydro-2H-benzo[b][1,4]thiazin-6-carboxamide]	42 nM		
O=C(Nc1c[nH]c2ccccc12)c1ccc2c(c1)SCC(=O)N2Cc1ccc2occc2c1 [Example I-65, 4-(benzofuran-5-ylmethyl)-N-(1H-indol-3-yl)-3-oxo-3,4-dihydro-2H-benzo[b][1,4]thiazin-7-carboxamide]	57 nM		
O=C(Nc1c[nH]c2ccccc12)c1ccc2c(c1)N(CC1CN(c3cc(F)cc(C(F)(F)F)c3)C1)C(=O)CS2 [Example I-9, 4-((1-(3-fluoro-5-trifluoromethylphenyl)azetidin-3-yl)methyl)-N-(1H-indol-3-yl)-3-oxo-3,4-dihydro-2H-benzo[b][1,4]thiazin-6-carboxamide]	249 nM		
O=C(Nc1c[nH]c2ccccc12)c1ccc2c(c1)SCC(=O)N2Cc1ccc2c(c1)OCO2 [Example I-66, 4-(benzo[d][1,3]dioxolan-5-ylmethyl)-N-(1H-indol-3-yl)-3-oxo-3,4-dihydro-2H-benzo[b][1,4]thiazin-7-carboxamide]	73 nM		
CCc1ccc(NC(=O)Nc2c[nH]c3ccccc23)cc1 [Example H151, H-151, reference compound]		271 nM	635 nM
CC1(C)C(=O)N(Cc2csc(C(F)(F)F)c2)c2cc(C(=O)Nc3c[nH]c4ccccc34)ccc21 [Example I-102]		10.6 nM	20.8 nM
CC1(C)C(=O)N(Cc2ccccc2)c2cc(C(=O)Nc3c[nH]c4ccc(F)cc34)ccc21 [Example I-105]		3.38 nM	70.4 nM
O=C(Nc1c[nH]c2ccccc12)c1ccc2c(c1)SCC(=O)N2Cc1ccoc1 [Example I-64, 4-(furan-3-ylmethyl)-N-(1H-indol-3-yl)-3-oxo-3,4-dihydro-2H-benzo[b][1,4]thiazin-7-carboxamide]	139 nM		
O=C(Nc1cc2c(s1)SCC(=O)N2Cc1ccccc1)Nc1c[nH]c2ccccc12 [Example I-7, 1-(1-benzyl-2-oxo-2,3-dihydro-1H-thieno[2,3-b][1,4]thiazin-6-yl)-3-(1H-indol-3-yl)urea]	390 nM		
CC1(C)C(=O)N(CC2CN(c3ccccc3)C2)c2cc(NC(=O)Nc3c[nH]c4ccccc34)ccc21 [Example I-12, 1-(3,3-dimethyl-2-oxo-1-((1-phenylazetidin-3-yl)methyl)indolin-6-yl)-3-(1H-indol-3-yl)urea]	375 nM		
CCC1(C)C(=O)N(Cc2ccccc2)c2cc(C(=O)Nc3c[nH]c4ccccc34)ccc21 (stereo not shown) [Example I-101]		38.5 nM	16.4 nM

Results, then the compound that gave them:

IC50 [1]	IC50 [2]	IC50 [3]	SMILES
	5.26 nM	76.6 nM	O=C(Nc1c[nH]c2cc(F)c(F)cc12)c1cc2c(s1)SCC(=O)N2Cc1cc(F)cc(C(F)(F)F)c1 [Example I-125, N-(5,6-difluoro-1H-indol-3-yl)-1-(3-fluoro-5-(trifluoromethyl)benzyl)-2-oxo-2,3-dihydro-1H-thieno[2,3-b][1,4]thiazin-6-carboxamide]
	58.5 nM	58.5 nM	CC1(C)C(=O)N(Cc2cccc3ccoc23)c2cc(C(=O)Nc3c[nH]c4ccc(F)cc34)ccc21 [Example I-126, 1-(benzofuran-7-ylmethyl)-N-(5-fluoro-1H-indol-3-yl)-3,3-dimethyl-2-oxoindolin-6-carboxamide]
	14.3 nM	36.8 nM	CC1(C)C(=O)N(Cc2cc(F)cc(C(F)(F)F)c2)c2cc(C(=O)Nc3c[nH]c4ccc(F)cc34)ccc21 [Example I-110]
	15.9 nM	272 nM	O=C(Nc1c[nH]c2ccc(F)cc12)c1cc2c(s1)SCC(=O)N2Cc1ccoc1 [Example I-122, N-(5-fluoro-1H-indol-3-yl)-1-(furan-3-ylmethyl)-2-oxo-2,3-dihydro-1H-thieno[2,3-b][1,4]thiazin-6-carboxamide]
	1.74 nM	71.4 nM	CC1(C)C(=O)N(CCc2ccsc2)c2cc(C(=O)Nc3c[nH]c4ccccc34)ccc21 [Example I-108, N-(1H-indol-3-yl)-3,3-dimethyl-2-carbonyl-1-(2-(thien-3-yl)ethyl) indolin-6-carboxamide]
	76.7 nM	85 nM	O=C(Nc1c[nH]c2ccccc12)c1cc2c(s1)SCC(=O)N2Cc1ccoc1 [Example I-117, 1-(furan-3-ylmethyl)-N-(1H-indol-3-yl)-2-oxo-2,3-dihydro-1H-thieno[2,3-b][1,4]thiazin-6-carboxamide]
	27.9 nM	39.4 nM	O=C(Nc1c[nH]c2ccccc12)c1cc2c(s1)SCC(=O)N2Cc1ccc2occc2c1 [Example I-113, 1-(benzofuran-5-ylmethyl)-N-(1H-indol-3-yl)-2-oxo-2,3-dihydro-1H-thieno[2,3-b][1,4]thiazin-6-carboxamide]
	31.7 nM	268 nM	O=C(Nc1c[nH]c2ccc(F)cc12)c1cc2c(s1)SCC(=O)N2Cc1ccco1 [Example I-121, N-(5-fluoro-1H-indol-3-yl)-1-(furan-2-ylmethyl)-2-oxo-2,3-dihydro-1H-thieno[2,3-b][1,4]thiazin-6-carboxamide]
	< 3 nM	48 nM	O=C(Nc1c[nH]c2ccc(F)cc12)c1cc2c(s1)SCC(=O)N2Cc1cc(F)cc(C(F)(F)F)c1 [Example I-124, N-(5-fluoro-1H-indol-3-yl)-1-(3-fluoro-5-(trifluoromethyl)benzyl)-2-oxo-2,3-dihydro-1H-thieno[2,3-b][1,4]thiazin-6-carboxamide]
	8.7 nM	96.5 nM	O=C(Nc1c[nH]c2ccccc12)c1cc2c(s1)SCC(=O)N2Cc1cccc2ccoc12 [Example I-120, 1-(benzofuran-7-ylmethyl)-N-(1H-indol-3-yl)-2-oxo-2,3-dihydro-1H-thieno[2,3-b][1,4]thiazin-6-carboxamide]
